Measurements as given in US20240261315A1 (Omikron Italia S.r.l., priority 2021, published 2024).

Experiments:
synaptophysin = test: Synaptophysin quantification by immunofluorescence in retina of db/db mice; assay type: in vivo; conditions: vs placebo and healthy control
Text: The db/db mice have a mutation in the leptin receptor gene and they are an animal model of retinal neurodegeneration. Such model is useful to mime the pathophysiological events which are found in neurodegenerative pathologies such as glaucoma.
20 db/db […] (BKS.Cg-+Leprdb/+Leprdb/OlaHsd, males, 10 weeks) were randomized in 5 groups and treated for 15 days by oral route with oral solutions based on: • 1. Citicoline 0.5% (Cit.) in 10% lactose solution administered with nasogastric tube (SNG); • 2. […] 10% lactose solution (Placebo) administered with SNG; • 5. Healthy, non-diabetic control (Control).
(v) The quantification of caspase-3 and of synaptophysin was performed by means of immunofluorescence. The sections were fixed in methanol (20° C.) for 1 min and washed with buffered saline solution (PBS) 0.01 M at pH 7.4. Then, the sections were incubated in 10% solution NGS, 0.1% Triton X-100, PBS for 1 hour at room environment and subsequently incubated with a specific primary antibody (respectively anti-caspase-3 and anti-synaptophysin monoclonal antibody of rabbit) one night at 4° C. […] Five fields (three corresponding to the central retina and two to the peripheral one) were analysed. The fluorescence intensity of images was quantified with software ImageJ.

retinal ganglion cells = test: Clinical observation: electro-functional test, PERG; assay type: in vivo, human; conditions: after 6 months of treatment, in addition to hypotensive therapy, 3 patients
Procedure: 12 randomized patients were included in 4 groups: • CIT. GROUP-3 patients treated with citicoline in oral solution 10 ml/die corresponding to 500 mg/die of citicoline, in addition to the hypotensive therapy; • NIC. […] The patients were treated and followed for 6 months. At baseline and after 6 months of treatment complete eye examination including visual acuity, control of the intraocular pressure (IOP) with Goldmann tonometry (GAT); visual field testing, electro-functional and morphological examination were performed. Then (2) electro-functional test was performed: electroretinogram from PERG pattern and of the PEV visual evoked potentials to evaluate the bioelectric responses respectively of the retinal ganglion cells and of the visual cortex evoked from the visual stimuli. The patients were positioned in an acoustically insulated semi-dark room, in front of the display surrounded by a uniform field of luminance of 5 cd/m2. […] The signal to PERG and PEV was recorded by a small electrode of Ag/AgCl positioned respectively above the lower eyelid and on the scalp. […] The peak-peak widths were measured at PERG P50-N95 for each wave. […] During a recording session, simultaneous PERG and PEV were recorded at least twice (between two and six times) and the resulting waveforms were overlapped to verify the repeatability of results. […]

glaucomatous patients [1] = conditions: cited from earlier work
[2] = test system: patients with controlled IOP; conditions: oral citicoline, patients with IOP <18 mmHg on b-blockers; cited from earlier work
glaucomatous patients [3] = conditions: citicoline intramuscularly, 10-year follow-up; cited from earlier work
[4] = in five days; cited from earlier work

Compound	levels of synaptophysin (synaptophysin)	PERG P50-N95 A (retinal ganglion cells)	increase of the width of P50-N95 tract of pERG (glaucomatous patients [1]; citicoline in oral solution)	loss of nervous fibres at the retinal layer through GDX (glaucomatous patients [1]; oral solution 500 mg/die, vs antihypertensive therapy only)	latency time of VEP [2]	width of PERG signal [2]	perimetric defect (areas of not perception) (glaucomatous patients [3])	elimination of the marked products [4]
C[N+](C)(C)CCOP(=O)([O-])OP(=O)(O)OC[C@H]1O[C@@H](n2ccc(N)nc2=O)C(O)C1O (stereo partly shown) [Citicoline, citidin-5′-difosfocholine]	statistically significant increase in the levels of synaptophysin	1.77 (±0.27) microV	100%	slows down the loss of nervous fibres at the retinal layer	decrease in latency time of VEP	improvement in the width of PERG signal	reduction of the perimetric defect	16%
NC(=O)c1cccnc1 [Nicotinamide]	statistically significant increase in the levels of synaptophysin	1.74 (±0.21) microV						
